Measurements as given in PubChem BioAssay (NCI).
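Exposure lasted 48 hours, with cells grown in 96-well plates and compounds tested at five concentrations. Abbreviation: GI50, concentration required for 50% inhibition of growth. TGI marks complete inhibition of growth.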

Experiments:
Assay in all cases: NCI anticancer screen, dose series, 48 h
786-0 renal = test system: 786-0 renal
A498 renal = test system: A498 renal
A549 NSCLC = test system: A549 NSCLC
ACHN renal = test system: ACHN renal
BT-549 breast = test system: BT-549 breast
CAKI-1 renal = test system: CAKI-1 renal
CCRF-CEM leukemia = test system: CCRF-CEM leukemia
COLO 205 colon = test system: COLO 205 colon
DU-145 prostate = test system: DU-145 prostate
EKVX NSCLC = test system: EKVX NSCLC
HCC-2998 colon = test system: HCC-2998 colon
HCT-116 colon = test system: HCT-116 colon
HCT-15 colon = test system: HCT-15 colon
HL-60(TB) leukemia = test system: HL-60(TB) leukemia
HOP-62 NSCLC = test system: HOP-62 NSCLC
HOP-92 NSCLC = test system: HOP-92 NSCLC
HS 578T breast = test system: HS 578T breast
HT29 colon = test system: HT29 colon
IGROV1 ovarian = test system: IGROV1 ovarian
K-562 leukemia = test system: K-562 leukemia
KM12 colon = test system: KM12 colon
LOX IMVI melanoma = test system: LOX IMVI melanoma
M14 melanoma = test system: M14 melanoma
MALME-3M melanoma = test system: MALME-3M melanoma
MCF7 breast = test system: MCF7 breast
MDA-MB-231 breast = test system: MDA-MB-231 breast
MDA-MB-435 = test system: MDA-MB-435
MOLT-4 leukemia = test system: MOLT-4 leukemia
NCI-H226 lung = test system: NCI-H226 lung
NCI-H23 lung = test system: NCI-H23 lung
NCI-H460 lung = test system: NCI-H460 lung
NCI-H522 lung = test system: NCI-H522 lung
NCI/ADR-RES ovarian = test system: NCI/ADR-RES ovarian
OVCAR-3 ovarian = test system: OVCAR-3 ovarian
OVCAR-4 ovarian = test system: OVCAR-4 ovarian
OVCAR-5 ovarian = test system: OVCAR-5 ovarian
OVCAR-8 ovarian = test system: OVCAR-8 ovarian
PC-3 prostate = test system: PC-3 prostate
RPMI-8226 leukemia = test system: RPMI-8226 leukemia
RXF 393 renal = test system: RXF 393 renal
SF-268 CNS = test system: SF-268 CNS
SF-295 CNS = test system: SF-295 CNS
SF-539 CNS = test system: SF-539 CNS
SK-MEL-2 melanoma = test system: SK-MEL-2 melanoma
SK-MEL-28 melanoma = test system: SK-MEL-28 melanoma
SK-MEL-5 melanoma = test system: SK-MEL-5 melanoma
SK-OV-3 ovarian = test system: SK-OV-3 ovarian
SN12C renal = test system: SN12C renal
SNB-19 CNS = test system: SNB-19 CNS
SNB-75 CNS = test system: SNB-75 CNS
SR leukemia = test system: SR leukemia
SW-620 colon = test system: SW-620 colon
T-47D breast = test system: T-47D breast
TK-10 renal = test system: TK-10 renal
U251 CNS = test system: U251 CNS
UACC-257 melanoma = test system: UACC-257 melanoma
UACC-62 melanoma = test system: UACC-62 melanoma
UO-31 renal = test system: UO-31 renal

## COc1ccccc1CNCCCN1C(=O)c2ccc3c4c(ccc(c24)C1=O)C(=O)N(CCCCNCCCN)C3=O
786-0 renal
  GI50: 2.25 µM
  TGI: 9.35 µM
A498 renal
  GI50: 3.12 µM
  TGI: 12.8 µM
A549 NSCLC
  GI50: 1.58 µM
  TGI: 3.5 µM
ACHN renal
  GI50: 3.68 µM
  TGI: 17.3 µM
BT-549 breast
  GI50: 2.23 µM
  TGI: 4.51 µM
CAKI-1 renal
  GI50: 13.1 µM
  TGI: 34.8 µM
CCRF-CEM leukemia
  GI50: 0.752 µM
  TGI: 5.17 µM
COLO 205 colon
  GI50: 0.524 µM
  TGI: 1.08 µM
DU-145 prostate
  GI50: 1.59 µM
  TGI: 2.99 µM
EKVX NSCLC
  GI50: 2 µM
  TGI: 5.75 µM
HCC-2998 colon
  GI50: 1.12 µM
  TGI: 3.03 µM
HCT-116 colon
  GI50: 0.648 µM
  TGI: 1.94 µM
HCT-15 colon
  GI50: 4.43 µM
  TGI: 18.6 µM
HL-60(TB) leukemia
  GI50: 0.867 µM
  TGI: 2.7 µM
HOP-62 NSCLC
  GI50: 2.93 µM
  TGI: 10.4 µM
HOP-92 NSCLC
  GI50: 2.01 µM
  TGI: 7.04 µM
HS 578T breast
  GI50: 2.27 µM
  TGI: 8.2 µM
HT29 colon
  GI50: 0.95 µM
  TGI: 3.37 µM
IGROV1 ovarian
  GI50: 1.43 µM
  TGI: 3.86 µM
K-562 leukemia
  GI50: 1.9 µM
  TGI: 4.87 µM
KM12 colon
  GI50: 2.53 µM
  TGI: 9.7 µM
LOX IMVI melanoma
  GI50: 0.654 µM
  TGI: 1.69 µM
M14 melanoma
  GI50: 1.89 µM
  TGI: 3.5 µM
MALME-3M melanoma
  GI50: 0.871 µM
  TGI: 2.18 µM
MCF7 breast
  GI50: 0.472 µM
  TGI: 1.35 µM
MDA-MB-231 breast
  GI50: 2.64 µM
  TGI: 13.2 µM
MDA-MB-435
  GI50: 0.574 µM
  TGI: 1.16 µM
MOLT-4 leukemia
  GI50: 0.389 µM
  TGI: 1.7 µM
NCI-H226 lung
  GI50: 2.26 µM
  TGI: 9.24 µM
NCI-H23 lung
  GI50: 0.594 µM
  TGI: 1.63 µM
NCI-H460 lung
  GI50: 0.825 µM
  TGI: 2.82 µM
NCI-H522 lung
  GI50: 1.46 µM
  TGI: 3.25 µM
NCI/ADR-RES ovarian
  GI50: 5.98 µM
  TGI: 34.2 µM
OVCAR-3 ovarian
  GI50: 0.334 µM
  TGI: 1.14 µM
OVCAR-4 ovarian
  GI50: 0.458 µM
  TGI: 1.24 µM
OVCAR-5 ovarian
  GI50: 2.95 µM
  TGI: 9.02 µM
OVCAR-8 ovarian
  GI50: 0.71 µM
  TGI: 3.67 µM
PC-3 prostate
  GI50: 2.29 µM
  TGI: 9.82 µM
RPMI-8226 leukemia
  GI50: 1.91 µM
  TGI: 10.7 µM
RXF 393 renal
  GI50: 0.807 µM
  TGI: 2.3 µM
SF-268 CNS
  GI50: 1.57 µM
  TGI: 7.27 µM
SF-295 CNS
  GI50: 3.65 µM
  TGI: 17.4 µM
SF-539 CNS
  GI50: 1.68 µM
  TGI: 3.19 µM
SK-MEL-2 melanoma
  GI50: 1.09 µM
  TGI: 3.09 µM
SK-MEL-28 melanoma
  GI50: 1.59 µM
  TGI: 3.55 µM
SK-MEL-5 melanoma
  GI50: 0.467 µM
  TGI: 0.95 µM
SK-OV-3 ovarian
  GI50: 3.74 µM
  TGI: 15.9 µM
SN12C renal
  GI50: 0.704 µM
  TGI: 2.09 µM
SNB-19 CNS
  GI50: 1.31 µM
  TGI: 2.72 µM
SNB-75 CNS
  GI50: 7.13 µM
SR leukemia
  GI50: 0.362 µM
  TGI: > 23.6 µM
SW-620 colon
  GI50: 0.636 µM
  TGI: 2 µM
T-47D breast
  GI50: 1.13 µM
  TGI: 3.65 µM
TK-10 renal
  GI50: 2.62 µM
  TGI: 8.07 µM
U251 CNS
  GI50: 0.831 µM
  TGI: 2.28 µM
UACC-257 melanoma
  GI50: 0.698 µM
  TGI: 2.08 µM
UACC-62 melanoma
  GI50: 1.01 µM
  TGI: 2.68 µM
UO-31 renal
  GI50: 3.5 µM
  TGI: 14.4 µM
